# In ChEMBL document CHEMBL2331144, “Synthesis and anticancer activity of analogues of phenstatin, with a phenothiazine A-ring, as a new class of microtubule-targeting agents” (Bioorg Med Chem Lett, 2013):
# pIC50: −log10 of the molar value.
# Key:
# NCI-H522 = test: Growth inhibition of human NCI-H522 cells after 48 hrs by sulforhodamine B assay; type: functional; settings: NCI-H522, 48 h
# COLO 205 = test: Growth inhibition of human COLO205 cells after 48 hrs by sulforhodamine B assay; type: functional; settings: COLO 205, 48 h
# NCI-H460 = test: Growth inhibition of human NCI-H460 cells after 48 hrs by sulforhodamine B assay; type: functional; settings: NCI-H460, 48 h
# NCI-H23 = test: Growth inhibition of human NCI-H23 cells after 48 hrs by sulforhodamine B assay; type: functional; settings: NCI-H23, 48 h
# HOP-62 = test: Growth inhibition of human HOP62 cells after 48 hrs by sulforhodamine B assay; type: functional; settings: HOP-62, 48 h
# HOP-92 = test: Growth inhibition of human HOP92 cells after 48 hrs by sulforhodamine B assay; type: functional; settings: HOP-92, 48 h
# A549 = test: Growth inhibition of human A549/ATCC cells after 48 hrs by sulforhodamine B assay; type: functional; settings: A549, 48 h
# SR = test: Growth inhibition of human SR cells after 48 hrs by sulforhodamine B assay; type: functional
# RPMI-8226 = test: Growth inhibition of human RPMI8226 cells after 48 hrs by sulforhodamine B assay; type: functional; settings: RPMI-8226, 48 h
# MOLT-4 = test: Growth inhibition of human MOLT4 cells after 48 hrs by sulforhodamine B assay; type: functional; settings: MOLT-4, 48 h
# K562 = test: Growth inhibition of human K562 cells after 48 hrs by sulforhodamine B assay; type: functional; settings: K562, 48 h
# HL-60(TB) = test: Growth inhibition of human HL-60(TB) cells after 48 hrs by sulforhodamine B assay; type: functional; settings: HL-60, 48 h
# CCRF-CEM = test: Growth inhibition of human CCRF-CEM cells after 48 hrs by sulforhodamine B assay; type: functional
# [1] = Inhibition of sheep brain tubulin polymerization using DAPI by fluorimetry; set-up: species or system Ovis aries
# Ovis aries = species on record: Ovis aries; test: Inhibition of sheep brain tubulin polymerization at 100 uM using DAPI by fluorimetry
# MDA-MB-468 = test: Growth inhibition of human MDA-MB-468 cells after 48 hrs by sulforhodamine B assay; type: functional; settings: MDA-MB-468, 48 h
# BT-549 = test: Growth inhibition of human BT549 cells after 48 hrs by sulforhodamine B assay; type: functional; settings: BT-549, 48 h
# [2] = Growth inhibition of human Hs 578T cells after 48 hrs by sulforhodamine B assay; type: functional
# MDA-MB-231 = test: Growth inhibition of human MDA-MB-231 cells after 48 hrs by sulforhodamine B assay; type: functional; settings: MDA-MB-231, 48 h
# MCF7 = test: Growth inhibition of human MCF7 cells after 48 hrs by sulforhodamine B assay; type: functional; settings: MCF7, 48 h
# SF-539 = test: Growth inhibition of human SF539 cells after 48 hrs by sulforhodamine B assay; type: functional; settings: SF-539, 48 h
# SNB-75 = test: Growth inhibition of human SNB75 cells after 48 hrs by sulforhodamine B assay; type: functional; settings: SNB-75, 48 h
# SF-295 = test: Growth inhibition of human SF295 cells after 48 hrs by sulforhodamine B assay; type: functional; settings: SF-295, 48 h
# SF-268 = test: Growth inhibition of human SF268 cells after 48 hrs by sulforhodamine B assay; type: functional; settings: SF-268, 48 h
# PC-3 = test: Growth inhibition of human PC3 cells after 48 hrs by sulforhodamine B assay; type: functional; settings: PC-3, 48 h
# TK-10 = test: Growth inhibition of human TK10 cells after 48 hrs by sulforhodamine B assay; type: functional; settings: TK-10, 48 h
# DU-145 = test: Growth inhibition of human DU145 cells after 48 hrs by sulforhodamine B assay; type: functional; settings: DU-145, 48 h
# ACHN = test: Growth inhibition of human ACHN cells after 48 hrs by sulforhodamine B assay; type: functional
# 786-0 = test: Growth inhibition of human 786-0 cells after 48 hrs by sulforhodamine B assay; type: functional; settings: 786-0, 48 h
# UO-31 = test: Growth inhibition of human UO31 cells after 48 hrs by sulforhodamine B assay; type: functional; settings: UO-31, 48 h
# RXF 393 = test: Growth inhibition of human RXF393 cells after 48 hrs by sulforhodamine B assay; type: functional; settings: RXF 393, 48 h
# SN12C = test: Growth inhibition of human SN12C cells after 48 hrs by sulforhodamine B assay; type: functional
# CAKI-1 = test: Growth inhibition of human CAKI-1 cells after 48 hrs by sulforhodamine B assay; type: functional; settings: CAKI-1, 48 h
# A498 = test: Growth inhibition of human A498 cells after 48 hrs by sulforhodamine B assay; type: functional; settings: A498, 48 h
# IGROV-1 = test: Growth inhibition of human IGROV1 cells after 48 hrs by sulforhodamine B assay; type: functional; settings: IGROV-1, 48 h
# SK-OV-3 = test: Growth inhibition of human SKOV3 cells after 48 hrs by sulforhodamine B assay; type: functional; settings: SK-OV-3, 48 h
# [3] = Growth inhibition of human NCI-ADR-RES cells after 48 hrs by sulforhodamine B assay; type: functional
# OVCAR-8 = test: Growth inhibition of human OVCAR8 cells after 48 hrs by sulforhodamine B assay; type: functional; settings: OVCAR-8, 48 h
# OVCAR-4 = test: Growth inhibition of human OVCAR4 cells after 48 hrs by sulforhodamine B assay; type: functional; settings: OVCAR-4, 48 h
# OVCAR-3 = test: Growth inhibition of human OVCAR3 cells after 48 hrs by sulforhodamine B assay; type: functional; settings: OVCAR-3, 48 h
# SK-MEL-5 = test: Growth inhibition of human SK-MEL-5 cells after 48 hrs by sulforhodamine B assay; type: functional; settings: SK-MEL-5, 48 h
# UACC-257 = test: Growth inhibition of human UACC257 cells after 48 hrs by sulforhodamine B assay; type: functional; settings: UACC-257, 48 h
# LOX IMVI = test: Growth inhibition of human LOXIMVI cells after 48 hrs by sulforhodamine B assay; type: functional
# UACC-62 = test: Growth inhibition of human UACC62 cells after 48 hrs by sulforhodamine B assay; type: functional; settings: UACC-62, 48 h
# SK-MEL-28 = test: Growth inhibition of human SK-MEL-28 cells after 48 hrs by sulforhodamine B assay; type: functional; settings: SK-MEL-28, 48 h
# SK-MEL-2 = test: Growth inhibition of human SK-MEL-2 cells after 48 hrs by sulforhodamine B assay; type: functional; settings: SK-MEL-2, 48 h
# MDA-MB-435 = test: Growth inhibition of human MDA-MB-435 cells after 48 hrs by sulforhodamine B assay; type: functional; settings: MDA-MB-435, 48 h
# M14 = test: Growth inhibition of human M14 cells after 48 hrs by sulforhodamine B assay; type: functional; settings: M14, 48 h
# SW-620 = test: Growth inhibition of human SW620 cells after 48 hrs by sulforhodamine B assay; type: functional; settings: SW-620, 48 h
# KM12 = test: Growth inhibition of human KM12 cells after 48 hrs by sulforhodamine B assay; type: functional; settings: KM12, 48 h
# HT-29 = test: Growth inhibition of human HT-29 cells after 48 hrs by sulforhodamine B assay; type: functional; settings: HT-29, 48 h
# HCT-116 = test: Growth inhibition of human HCT116 cells after 48 hrs by sulforhodamine B assay; type: functional; settings: HCT-116, 48 h
# HCT-15 = test: Growth inhibition of human HCT15 cells after 48 hrs by sulforhodamine B assay; type: functional; settings: HCT-15, 48 h
# [4] = Growth inhibition of human HCC2998 cells after 48 hrs by sulforhodamine B assay; type: functional; settings: HCC 2998, 48 h
smiles,measurement,setting,value
COc1ccc(C(=O)N2c3ccccc3Sc3ccccc32)cc1N,GI50,NCI-H522,35 nM
same,GI50,COLO 205,193 nM
same,GI50,NCI-H460,289 nM
same,GI50,NCI-H23,437 nM
same,GI50,HOP-62,226 nM
same,GI50,HOP-92,277 nM
same,GI50,A549,187 nM
same,GI50,SR,30 nM
same,GI50,RPMI-8226,328 nM
same,GI50,MOLT-4,380 nM
same,GI50,K562,40 nM
same,GI50,HL-60(TB),245 nM
same,GI50,CCRF-CEM,268 nM
same,pIC50,[1],4.93
same,inhibition,Ovis aries,99%
same,GI50,MDA-MB-468,50 nM
same,GI50,BT-549,877 nM
same,GI50,[2],424 nM
same,GI50,MDA-MB-231,310 nM
same,GI50,MCF7,93 nM
same,GI50,SF-539,164 nM
same,GI50,SNB-75,257 nM
same,GI50,SF-295,71 nM
same,GI50,SF-268,958 nM
same,GI50,PC-3,310 nM
same,GI50,TK-10,575 nM
same,GI50,DU-145,291 nM
same,GI50,ACHN,472 nM
same,GI50,786-0,524 nM
same,GI50,UO-31,650 nM
same,GI50,RXF 393,130 nM
same,GI50,SN12C,798 nM
same,GI50,CAKI-1,290 nM
same,GI50,A498,129 nM
same,GI50,IGROV-1,721 nM
same,GI50,SK-OV-3,244 nM
same,GI50,[3],80 nM
same,GI50,OVCAR-8,366 nM
same,GI50,OVCAR-4,1210 nM
same,GI50,OVCAR-3,101 nM
same,GI50,SK-MEL-5,53 nM
same,GI50,UACC-257,1940 nM
same,GI50,LOX IMVI,881 nM
same,GI50,UACC-62,127 nM
same,GI50,SK-MEL-28,407 nM
same,GI50,SK-MEL-2,134 nM
same,GI50,MDA-MB-435,29 nM
same,GI50,M14,90 nM
same,GI50,SW-620,90 nM
same,GI50,KM12,97 nM
same,GI50,HT-29,151 nM
same,GI50,HCT-116,166 nM
same,GI50,HCT-15,73 nM
same,GI50,[4],683 nM
